Reference: PMC4287973, “Tumor cell-specific inhibition of MYC function using small molecule inhibitors of the HUWE1 ubiquitin ligase” (EMBO Molecular Medicine, 2014)

Tests used:
[1] = test system: MYC target gene sets in Ls174T cells; assay: Microarray gene expression and GSEA in Ls174T cells; format: cell-based, human; conditions: for number of genes downregulated (microarray) / number of genes upregulated (microarray): Ls174T, 24 h, cut-off fold change 2, P < 0.01
Experimental: Finally, shRNA-mediated depletion of p53 (Supplementary Fig S8, upper panel) had no effect on regulation of MYC target genes by either compound (Supplementary Fig S8, lower panel). Collectively, the data establish that these compounds block MYC-dependent transcriptional activation via inhibition of HUWE1 in colon cancer cells.
Control or HUWE1-depleted Ls174T cells were treated with HUWE1 inhibitors or DMSO as control for 24 h. Expression of different MYC-induced target genes was analyzed by RQ–PCR. Error bars show SD of triplicate technical assays from one representative experiment (n = 5). • Time-dependent expression of the differentiation marker MUC2 upon HUWE1 inhibition. Ls174T cells were treated with HUWE1 inhibitors for the indicated times. Error bars show SD of triplicate technical assays from one representative experiment (n = 3). • Gene set enrichment analysis (GSEA) of gene expression changes upon HUWE1 inhibition. Ls174T cells were treated for 24 h with either HUWE1 inhibitor or DMSO as control. RNA was isolated and subjected to a microarray and gene set enrichment analysis. […] P-values were calculated using a test for hypergeometric distribution. • Heat map comparing gene expression after HUWE1 depletion to treatment with HUWE1 inhibitors. The left panel summarizes expression of all genes (n = 10,452) ordered according to their expression after HUWE1 knockdown. […] MYC binding data were taken from HeLa cells. […] The upper panels display examples of MYC-activated gene sets and their response to inhibition of HUWE1.
Microarray analyses were performed on a 44K Whole Human Genome Array (G4845A 026652, Agilent), and raw data were generated with the Feature Extraction software v10.1.1.1 (Agilent).
The P-value was calculated using a one-sample two-tailed Student's t-test with μ = 0. Gene set enrichment analysis (GSEA) was performed using default settings and the C2 gene sets from the MSigDB (www.broadinstitute.org/gsea/msigdb). To compare two GSEA, the normalized enrichment scores (NES) for all repressed gene sets were plotted and gene sets containing > 25% ribosomal protein genes were highlighted. Data are presented as means with standard deviation unless defined differently in the figure legends. P-values were calculated using Student's t-test.

HERC1 = molecular target: T1, HERC1 (Homo sapiens, UniProt Q15751); assay: in vitro HECT-domain auto-ubiquitination assay, HERC1; format: biochemical
T1 construct: HECT-domains of multiple ligases auto-ubiquitinate in in vitro assays containing both UBA1 and UbcH5b
T1 sequence (Q15751 4501-4848 limits assumed): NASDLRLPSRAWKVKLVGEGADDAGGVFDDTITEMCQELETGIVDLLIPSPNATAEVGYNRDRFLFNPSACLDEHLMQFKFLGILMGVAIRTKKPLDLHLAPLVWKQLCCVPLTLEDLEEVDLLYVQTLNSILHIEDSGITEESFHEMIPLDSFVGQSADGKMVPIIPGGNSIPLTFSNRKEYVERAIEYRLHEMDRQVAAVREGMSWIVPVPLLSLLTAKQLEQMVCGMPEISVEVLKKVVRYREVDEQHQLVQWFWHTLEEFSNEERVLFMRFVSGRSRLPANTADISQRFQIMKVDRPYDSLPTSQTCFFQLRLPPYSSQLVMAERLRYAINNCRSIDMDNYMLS

HECW2 = molecular target: T2, HECW2 (Homo sapiens, UniProt Q9P2P5); assay: in vitro HECT-domain auto-ubiquitination assay, HECW2; format: biochemical
T2 construct: HECT-domains of multiple ligases auto-ubiquitinate in in vitro assays containing both UBA1 and UbcH5b

SMURF2 = molecular target: T3, SMURF2 (Homo sapiens, UniProt Q9HAU4); assay: in vitro HECT-domain auto-ubiquitination assay, SMURF2; format: biochemical
T3 construct: HECT-domains of multiple ligases auto-ubiquitinate in in vitro assays containing both UBA1 and UbcH5b

[2] = test system: crypt cultures of normal intestinal epithelial cells; assay: Survival and viability of intestinal crypt (organoid) cultures; conditions: for fraction of individual crypts that died: long-term incubation of primary crypt cultures
Experimental: Murine intestinal crypt cultures were established from wild-type mice of a mixed background (50% C57Bl6J, 50% S129) as previously described (Sato et al, [2009]). Briefly, intestines were isolated and flushed with PBS. Villi were removed by scraping and remaining tissue cut and washed with PBS. Crypt extraction was carried out in PBS + 2 mM EDTA for 30 min at 4 °C. Isolated crypts were washed with PBS and plated in growth factor reduced Matrigel (BD Biosciences). Crypts were grown in Advanced DMEM (Invitrogen) supplemented with N2 (Invitrogen), B27 (Invitrogen), EGF (Peprotech), Noggin (Peprotech), and R-spondin (Peprotech). Media were replaced every 2 days and crypts passaged weekly. […] Organoid survival was scored at this point based on their microscopic appearance. Cell viability was also determined using a CellTiter-Blue Cell Viability Assay (Promega) according to the manufacturer's instructions.
end of the experiment, the number of life crypts was counted by visual inspection.

WWP1 = molecular target: T4, WWP1 (Homo sapiens, UniProt Q9H0M0); assay: in vitro HECT-domain auto-ubiquitination assay, WWP1; format: biochemical
T4 construct: HECT-domains of multiple ligases auto-ubiquitinate in in vitro assays containing both UBA1 and UbcH5b
T4 sequence (Q9H0M0 588-922 limits assumed, species assumed): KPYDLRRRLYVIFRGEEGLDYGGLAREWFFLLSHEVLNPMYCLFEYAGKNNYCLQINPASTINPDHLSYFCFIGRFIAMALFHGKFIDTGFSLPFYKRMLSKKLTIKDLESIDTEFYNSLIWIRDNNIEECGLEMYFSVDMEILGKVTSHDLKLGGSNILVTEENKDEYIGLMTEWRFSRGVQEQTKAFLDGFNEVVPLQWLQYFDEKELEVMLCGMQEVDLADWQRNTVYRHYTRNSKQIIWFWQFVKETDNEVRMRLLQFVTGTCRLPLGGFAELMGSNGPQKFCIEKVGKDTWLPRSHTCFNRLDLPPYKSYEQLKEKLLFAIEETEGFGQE

T2 sequence (Q9P2P5 1237-1572 limits assumed, species assumed): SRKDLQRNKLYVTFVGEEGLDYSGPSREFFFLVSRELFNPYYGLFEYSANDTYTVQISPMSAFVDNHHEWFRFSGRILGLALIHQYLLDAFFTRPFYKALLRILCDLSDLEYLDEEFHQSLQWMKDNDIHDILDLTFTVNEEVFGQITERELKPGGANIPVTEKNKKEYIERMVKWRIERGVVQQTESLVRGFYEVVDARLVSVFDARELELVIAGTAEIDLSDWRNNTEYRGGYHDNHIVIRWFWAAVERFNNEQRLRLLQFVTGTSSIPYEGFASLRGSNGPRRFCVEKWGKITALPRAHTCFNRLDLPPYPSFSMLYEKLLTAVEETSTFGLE
T3 sequence (Q9HAU4 414-748 limits assumed, species assumed): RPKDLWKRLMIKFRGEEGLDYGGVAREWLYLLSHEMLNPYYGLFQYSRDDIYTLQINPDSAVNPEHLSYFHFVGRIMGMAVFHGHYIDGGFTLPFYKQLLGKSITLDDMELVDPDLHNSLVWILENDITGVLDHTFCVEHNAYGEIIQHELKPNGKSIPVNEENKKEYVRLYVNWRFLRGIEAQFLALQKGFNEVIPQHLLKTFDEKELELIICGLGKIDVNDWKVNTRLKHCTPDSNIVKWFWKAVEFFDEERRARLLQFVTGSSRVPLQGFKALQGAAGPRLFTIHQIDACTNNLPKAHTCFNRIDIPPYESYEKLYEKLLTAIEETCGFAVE

Cc1c(C(=O)Nc2ccc(CN)cc2)ncnc1N1CCC(C#N)(c2ccccc2)CC1 [BI8622]
number of genes downregulated (microarray) [1]: 2,295
number of genes upregulated (microarray) [1]: 2,267
effect on expression of sets of MYC-activated target genes in HUWE1-depleted cells ([1]; genome-wide analysis, HUWE1-depleted Ls174T cells): no statistically significant effect
IC50 (HERC1): > 50 µM
IC50 (HECW2): > 50 µM
IC50 (SMURF2): > 50 µM
Ki67 staining of intestinal crypts ([2]; 10 µM, 24 hr): Ki67-positive
MTT assay corrected for number of live crypts ([2]; 10 µM, 24 hr): no reduction
number of live crypts, % of all crypts ([2]; 10 µM, 24 hr, visual inspection): 68%
fraction of individual crypts that died [2]: around 30%
IC50 (WWP1): > 50 µM

NCc1cccc(CNc2ncnc3c(N4CCN(Cc5ccccc5)CC4)ncnc23)c1 [BI8626]
number of genes downregulated (microarray) [1]: 2,923
number of genes upregulated (microarray) [1]: 2,796
IC50 (HERC1): > 50 µM
IC50 (HECW2): > 50 µM
IC50 (SMURF2): > 50 µM
fraction of individual crypts that died [2]: 60-80%
IC50 (WWP1): > 50 µM
